According to patent US8236523B2, “Camp reporters and high throughput assays” (The Johns Hopkins University, priority 2004, dated 2012):

What was measured:
Assay type in all cases: cell-based
cAMP [1] = test: High throughput 96-well plate assay using ICUE2 stable HEK293 cells
Experimental: HEK293 cells which stably express ICUE2 (“ICUE2 stable HEK293 cells”) were grown to confluency in 10 cm dishes in DMEM, 10% FBS, 1% penicillin/streptomycin, and 250 μg/ml G418. HEK-293 cells were transfected with cDNA encoding ICUE2 using calcium phosphate at 40% confluency and allowed to grow for 40 hours. Cells were removed from the dish using 0.05% trypsin, spun down, and replaced with fresh media. ICUE2 stable HEK293 cells were counted on a hemocytometer using trypan blue stain. One hundred fifty thousand (150,000) cells were plated per well on a 96-well clear bottom assay plate in a total of 0.2 ml of media per […] and allowed to double once. Media was removed, cells were washed with Hanks buffered salt solution (HBSS) and then covered with 0.05 ml of HBSS per well. In a separate sterile plate, appropriate drugs were added to each well containing HBSS for a total volume of 0.05 ml. […] A baseline was established in three cycles, each consisting of a full plate reading of yellow intensity, followed by a reading of cyan intensity. Cells were then treated with isoproterenol (ISO; […] Readings were taken in six or twenty additional cycles. […] Baseline FRET ratios were calculated as the average ratio of yellow/cyan for each well before the addition of drug. FRET change was calculated as the percent increase of FRET ratio over baseline for each well during a given cycle. The FRET changes of all wells having undergone the same drug treatment were then averaged within each cycle, and that cycle was correlated with time.

cAMP [2] = test: Dual-emission ratio (FRET) imaging of Epac-based cAMP reporters (ICUE1 and targeted fusions) in HEK-293 cells; conditions: HEK293 cells expressing ICUE1, 10 μM ISO, 50 μM FSK
Experimental: Cell Culture. […] Cells were then transfected with FuGENE-6 transfection reagent (Roche) or calcium phosphate and allowed to grow for 12-24 hours before imaging.
Imaging. Cells were washed twice with Hanks' balanced salt solution buffer after 12- to 24-h incubation at 37° C. culture medium. Cells were maintained in buffer in the dark at room temperature with addition of isoproterenol (Aldrich), forskolin (Calbiochem), Prostaglandin E1 (PGE1) (Sigma), and 8-(4-chloro-phenylthio)-2′-O-methyl adenosine 3′,5′-monophosphate (8-pCPT-2′-O-Me-cAMP) (Axxora Biolog) as indicated. Cells were also treated with P-(4,5-dimethoxy-2-nitrobenzyl) adenosine 3′,5′-monophosphate (DMNB-cAMP) (Molecular Probe).
Cells were imaged on a Zeiss Axiovert 200M microscope with a cooled charge-coupled device camera MicroMAX BFT512 (Roper Scientific) controlled by METAFLUOR 6.2 software (Universal Imaging). Dual-emission ratio imaging used a 420DF20 excitation filter, a 450DRLP dichroic mirror and two emission filters (475DF40 for ECFP, 535DF25 for citrine) alternated by a filter changer Lambda 10-2 (Sutter Instruments). Exposure time was 100-500 ms and images were taken every 8-30 s. Fluorescent images were background-corrected by subtracting autofluorescence intensities of untransfected cells (or background with no cells) from the emission intensities of fluorescent cells expressing reporters. The ratios of cyan to yellow emissions were then calculated at different time points and normalized by dividing all ratios by the emission ratio just prior to stimulation therefore setting the basal emission ratio to 1.

cAMP [3] = test: 96-well live cell plate reading of HEK293 cells expressing ICUE3; conditions: 1 μM ISO, 50 μM FSK
Experimental: Plate reading used a 420DF20 excitation filter and two emission filters (470DF40 for cyan and 535DF25 for yellow). A baseline was established in three cycles, each consisting of a full plate reading of yellow intensity, followed by a reading of cyan intensity. Cells were then treated with isoproterenol (ISO; Aldrich), forskolin (Calbiochem), H89, propranolol, and 3-isobutyl-1-methylxanthine (IBMX) as indicated. Readings were taken in six or twenty additional cycles. Each cycle lasted 60 to 145 sec. Baseline FRET ratios were calculated as the average ratio of yellow/cyan for each well before the addition of drug. FRET change was calculated as the percent increase of FRET ratio over baseline for each well during a given cycle. The FRET changes of all wells having undergone the same drug treatment were then averaged within each cycle, and that cycle was correlated with time.
Live cell plate reading. HEK293 cells were transfected with cDNA encoding ICUE reporters using calcium phosphate at 40% confluency and allowed to grow for 40 hours. Cells were then trypsinized and plated in a Costar 3603 96-well assay plate (Coming) at a density of 150,000 cells per well. After incubation for another 24 hours, cells were washed once with HBSS and left in 150 μl HBSS at 20-25° C. Fluorescence reading was taken on a FLUOstar OPTIMA fluorescence microplate reader (BMG Labtechnologies Inc.) using a 420DF20 excitation filter and two emission filters (470DF40 for cyan and […] for yellow). A baseline was established in three cycles, each consisting of a full plate reading of yellow intensity, followed by a reading of cyan intensity. Each cycle lasted between 64 and 145 seconds. Readings were taken in additional cycles. FRET change was calculated as the percent increase of emission ratios (cyan-to-yellow) over baseline for each well during a given cycle. To assess the efficacy of the assay, several statistical parameters were calculated, including Z factor, coefficient of variation, and signal-to-noise ratio (Zhang et al., J. Biomol. Screen. 4, 67-73, 1999).

## CC(C)NCC(O)c1ccc(O)c(O)c1 (stereo not shown) [isoproterenol]
cAMP [1]; 1 μM ISO, 100 μM IBMX, 50 μM FSK
  character of ICUE2 response (in words): transient responses
cAMP [1]; cycle 1 (1 cycle = 60 seconds), 1 μM Iso, 50 μM Fsk, 10 μM H89, 100 μM IBMX
  Average percent FRET response ± standard deviation, cycle 1: 8.22% ± 5.97%
cAMP [1]; cycle 2 (1 cycle = 60 seconds), 1 μM Iso, 50 μM Fsk, 10 μM H89, 100 μM IBMX
  Average percent FRET response ± standard deviation, cycle 2: 20.2% ± 1.69%
cAMP [1]; cycle 3 (1 cycle = 60 seconds), 1 μM Iso, 50 μM Fsk, 10 μM H89, 100 μM IBMX
  Average percent FRET response ± standard deviation, cycle 3: 21.59% ± 2.65%
cAMP [1]; cycle 4 (1 cycle = 60 seconds), 1 μM Iso, 50 μM Fsk, 10 μM H89, 100 μM IBMX
  Average percent FRET response ± standard deviation, cycle 4: 22.44% ± 2.42%
cAMP [1]; cycle 5 (1 cycle = 60 seconds), 1 μM Iso, 50 μM Fsk, 10 μM H89, 100 μM IBMX
  Average percent FRET response ± standard deviation, cycle 5: 21.47% ± 2.92%
cAMP [1]; cycle 6 (1 cycle = 60 seconds), 1 μM Iso, 50 μM Fsk, 10 μM H89, 100 μM IBMX
  Average percent FRET response ± standard deviation, cycle 6: 19.64% ± 1.73
cAMP [1]; cycle 7 (1 cycle = 60 seconds), 1 μM Iso, 50 μM Fsk, 10 μM H89, 100 μM IBMX
  Average percent FRET response ± standard deviation, cycle 7: 17.36% ± 1.28%
cAMP [1]; cycle 8 (1 cycle = 60 seconds), 1 μM Iso, 50 μM Fsk, 10 μM H89, 100 μM IBMX
  Average percent FRET response ± standard deviation, cycle 8: 15.93% ± 2.0%
cAMP [1]; cycle 9 (1 cycle = 60 seconds), 1 μM Iso, 50 μM Fsk, 10 μM H89, 100 μM IBMX
  Average percent FRET response ± standard deviation, cycle 9: 14.45% ± 3.55%
cAMP [1]; cycle 10 (1 cycle = 60 seconds), 1 μM Iso, 50 μM Fsk, 10 μM H89, 100 μM IBMX
  Average percent FRET response ± standard deviation, cycle 10: 11.07% ± 2.19%
cAMP [1]; cycle 11 (1 cycle = 60 seconds), 1 μM Iso, 50 μM Fsk, 10 μM H89, 100 μM IBMX
  Average percent FRET response ± standard deviation, cycle 11: 6.94% ± 1.93
cAMP [1]; cycle 12 (1 cycle = 60 seconds), 1 μM Iso, 50 μM Fsk, 10 μM H89, 100 μM IBMX
  Average percent FRET response ± standard deviation, cycle 12: 2.26% ± 5.45%
cAMP [1]; cycle 13 (1 cycle = 60 seconds), 1 μM Iso, 50 μM Fsk, 10 μM H89, 100 μM IBMX
  Average percent FRET response ± standard deviation, cycle 13: 2.47% ± 6.06%
cAMP [1]; cycle 14 (1 cycle = 60 seconds), 1 μM Iso, 50 μM Fsk, 10 μM H89, 100 μM IBMX
  Average percent FRET response ± standard deviation, cycle 14: 2.27% ± 3.37%
cAMP [1]; cycle 15 (1 cycle = 60 seconds), 1 μM Iso, 50 μM Fsk, 10 μM H89, 100 μM IBMX
  Average percent FRET response ± standard deviation, cycle 15: 1.80% ± 5.84%
cAMP [1]; cycle 16 (1 cycle = 60 seconds), 1 μM Iso, 50 μM Fsk, 10 μM H89, 100 μM IBMX
  Average percent FRET response ± standard deviation, cycle 16: 1.05% ± 5.87%
cAMP [1]; cycle 17 (1 cycle = 60 seconds), 1 μM Iso, 50 μM Fsk, 10 μM H89, 100 μM IBMX
  Average percent FRET response ± standard deviation, cycle 17: 1.29% ± 2.72%
cAMP [1]; cycle 18 (1 cycle = 60 seconds), 1 μM Iso, 50 μM Fsk, 10 μM H89, 100 μM IBMX
  Average percent FRET response ± standard deviation, cycle 18: 1.68% ± 6.12%
cAMP [1]; cycle 19 (1 cycle = 60 seconds), 1 μM Iso, 50 μM Fsk, 10 μM H89, 100 μM IBMX
  Average percent FRET response ± standard deviation, cycle 19: 2.52% ± 3.54%
cAMP [1]; cycle 20 (1 cycle = 60 seconds), 1 μM Iso, 50 μM Fsk, 10 μM H89, 100 μM IBMX
  Average percent FRET response ± standard deviation, cycle 20: 0.93% ± 4.45%
cAMP [2]; 10 μM PGE1
  time to plateau / maximal change in emission ratio: 1.5 to 3 min
cAMP [2]; 10 μM PGE1, 300 μM 8-pCPT-2′-O-Me-cAMP, average ± S.E.M
  increase in the ratio of cyan to yellow emissions (FRET response): 16.8%±1.0
cAMP [3]
  character of ICUE3 response (in words): transient responses
cAMP [3]; HEK293 cells expressing ICUE3, n=7
  maximal response / emission ratio change: 8.10%±1.4%
